This is an account of results in publication PMC6539479.

In experiment [1] the test system is human TASK-3 channels. The conditions noted are these: cited from earlier work.
The subject of experiment [2] is human TASK-3 channels. Description: IonWorks Quattro electrophysiology assay, HEK293 (Coburn et al.). Particulars: TASK-3, from reported IC50. Background: The patch-clamp technique gives a direct electrical read-out from membranes.
Another experiment has as its system TASK-1. Also noted: method as in PMID 30803485. Particulars: cited from earlier work.
The mark [3] stands for this setting: Table S2, TASK-3, ref 16 (supplement ref 1).
[4] abbreviates: Table 1, Figure 4B and text, TASK-3.
Where [5] appears, read: Table S3 reported activity, TASK-3.

“Also recorded” adds a separate entry of the source. Where two headings read alike, the source gives them in different places.

As to `CCOC(=O)C1CCN(c2ncnc3c2CN(Cc2ccccc2)CC3)CC1` [Compound 9c], in the experiment with human TASK-3 channels [1] (setting [3]), the IC50 is 710 ± 80 nM.
For the molecule `CCOC(=O)C1CCN(c2ncnc3c2CN(C(=O)NCc2ccccc2)CC3)CC1` [Compound 10b], the IC50 in the experiment on human TASK-3 channels [1] (setting [3]) is 3400 ± 400 nM.
Take `CCOC(=O)C1CCN(c2ncnc3c2CN(C(=O)Nc2ccc(-c4ccccc4)cc2)CC3)CC1` [Compound 10c]: in the experiment on human TASK-3 channels [1] (setting [3]), the IC50 is 9600 ± 500 nM.
`CCOC(=O)C1CCN(c2ncnc3c2CN(S(=O)(=O)Cc2ccccc2)CC3)CC1` [Compound 11a]: the IC50 with human TASK-3 channels [1] (setting [3]) was 3600 ± 400 nM.
Take `CCOC(=O)C1CCN(c2ncnc3c2CN(S(=O)(=O)c2ccc(Cl)cc2)CC3)CC1` [Compound 11b]: the IC50 in the experiment with human TASK-3 channels [1] (setting [3]) is 3900 ± 500 nM.
Take `CCOC(=O)C1CCN(c2ncnc3c2CN(S(=O)(=O)c2cccc(Cl)c2)CC3)CC1` [Compound 11c]: the IC50 in the experiment with human TASK-3 channels [1] (setting [3]) is 700 ± 70 nM.
On to `CCOC(=O)C1CCN(c2ncnc3c2CN(S(=O)(=O)c2ccccc2Cl)CC3)CC1` [Compound 11d], for which the IC50 with human TASK-3 channels [1] (setting [3]) was 900 ± 100 nM.
As for `CCOC(=O)C1CCN(c2ncnc3c2CN(C(=O)c2ccccc2)CC3)CC1` [Compound 12a], the IC50 with human TASK-3 channels [1] (setting [3]) is 3600 ± 770 nM.
In the case of `CCOC(=O)C1CCN(c2ncnc3c2CN(C(=O)c2ccc(OC)cc2)CC3)CC1` [Compound 12b], in the experiment on human TASK-3 channels [1] (setting [3]), the IC50 is 1600 ± 180 nM.
With `CCOC(=O)C1CCN(c2ncnc3c2CN(C(=O)c2ccc(Br)cc2)CC3)CC1` [Compound 12c], the IC50 in the experiment with human TASK-3 channels [1] (setting [3]) was 430 ± 60 nM.
Consider `CCOC(=O)C1CCN(c2ncnc3c2CN(C(=O)c2ccc(C)cc2)CC3)CC1` [Compound 12d], for which, in the experiment on human TASK-3 channels [1] (setting [3]), the IC50 is 310 ± 80 nM.
`CCOC(=O)C1CCN(c2ncnc3c2CN(C(=O)c2ccc(C4CCCCC4)cc2)CC3)CC1` [Compound 12e]: in the experiment on human TASK-3 channels [1] (setting [3]), the IC50 is 120 ± 10 nM.
Take `CCOC(=O)C1CCN(c2ncnc3c2CN(C(=O)c2ccc(-c4ccccc4)cc2)CC3)CC1` [Compound 12f]: the IC50 in the experiment with human TASK-3 channels [1] (setting [3]) is 74 ± 9 nM.
Take `CCOC(=O)C1CCN(c2ncnc3c2CN(C(=O)c2ccc(-c4ccccc4)cc2)CC3(C)C)CC1` [Compound 13a]: the IC50 with human TASK-3 channels [1] (setting [3]) is 570 ± 30 nM.
Consider `CCOC(=O)C1CCN(c2ncnc3c2CN(C(=O)c2ccc(-c4ccccc4)cc2)C(C)(C)C3)CC1` [Compound 13b], for which the IC50 in the experiment on human TASK-3 channels [1] (setting [3]) was 650 ± 30 nM.
As for `CCOC(=O)C1CCN(c2nc(C)nc3c2CN(C(=O)c2ccc(-c4ccccc4)cc2)CC3)CC1` [Compound 14b], the IC50 in the experiment on human TASK-3 channels [1] (setting [3]) is 260 ± 50 nM.
Regarding `O=C(c1ccc(-c2ccccc2)cc1)N1CCc2ncnc(N3CCCC3)c2C1` [Compound 17b], in the experiment with human TASK-3 channels [1] (setting [4]), the half-maximal inhibitory concentration (IC50) was 27000 nM. Moreover, the “inhibiting TASK-3 channels” value in the experiment with human TASK-3 channels [1] (potency range in words) is “micromolar range”. The “fold lower affinity than PK-THPP” value with human TASK-3 channels [2] was approximately 1000 fold.
As for `O=C(c1ccc(-c2ccccc2)cc1)N1CCc2ncnc(N3CCCCC3)c2C1` [Compound 17c], the IC50 in the experiment with human TASK-3 channels [1] (setting [3]) was 4000 ± 1100 nM.
Consider `O=C(c1ccc(-c2ccccc2)cc1)N1CCc2ncnc(N3CCOCC3)c2C1` [Compound 17d], for which the IC50 with human TASK-3 channels [1] (setting [3]) is 4600 ± 1100 nM.
As for `O=C(c1ccc(-c2ccccc2)cc1)N1CCc2ncnc(N3CCS(=O)(=O)CC3)c2C1` [Compound 17e], the IC50 is 570 ± 60 nM in the experiment with human TASK-3 channels [1] (setting [3]) and 570 nM with human TASK-3 channels [1] (setting [5]).
Consider `CS(=O)(=O)C1CCN(c2ncnc3c2CN(C(=O)c2ccc(-c4ccccc4)cc2)CC3)CC1` [Compound 18], for which the IC50 in the experiment with human TASK-3 channels [1] (setting [3]) is 82 ± 5 nM; with human TASK-3 channels [1] (setting [5]), 82 nM.
For the molecule `COC1CCN(c2ncnc3c2CN(C(=O)c2ccc(-c4ccccc4)cc2)CC3)CC1` [Compound 19], the IC50 in the experiment on human TASK-3 channels [1] (setting [3]) was 135 ± 37 nM; with human TASK-3 channels [1] (setting [5]), 135 nM.
Take `O=C(c1ccc(-c2ccccc2)cc1)N1CCc2ncnc(N3CC[C@H]4OCCC[C@@H]4C3)c2C1` [Compound 20b]: the IC50 in the experiment with human TASK-3 channels [1] (TASK-3) is 70 nM; in the experiment with human TASK-3 channels [1] (setting [4]), 70 nM; in the experiment on human TASK-3 channels [1] (setting [3]) it was 70 ± 7 nM; in the experiment with human TASK-3 channels [1] (setting [5]) it was 70 nM.
With `CC(C)(O)C1CCN(c2ncnc3c2CN(C(=O)c2ccc(-c4ccccc4)cc2)CC3)CC1` [Compound 21], the half-maximal inhibitory concentration (IC50) in the experiment with human TASK-3 channels [1] (TASK-3) was 50 nM; in the experiment with human TASK-3 channels [1] (setting [4]), 50 nM; in the experiment with human TASK-3 channels [1] (setting [3]), 50 ± 6 nM; in the experiment on human TASK-3 channels [1] (setting [5]), 50 nM.
With `CCc1noc(C2CCN(c3ncnc4c3CN(C(=O)c3ccc(-c5ccccc5)cc3)CC4)CC2)n1` [Compound 22], the IC50 in the experiment on human TASK-3 channels [1] (TASK-3) is 70 nM; with human TASK-3 channels [1] (setting [4]) it was 70 nM; in the experiment on human TASK-3 channels [1] (setting [3]), 70 ± 10 nM; with human TASK-3 channels [1] (setting [5]), 70 nM.
As to `CCC(=O)C1CCN(c2ncnc3c2CN(C(=O)c2ccc(-c4ccccc4)cc2)CC3)CC1` [Compound 24], the IC50 in the experiment with human TASK-3 channels [1] (setting [3]) was 80 ± 9 nM; in the experiment with human TASK-3 channels [1] (setting [5]), 80 nM.
As for `CCCC(=O)C1CCN(c2ncnc3c2CN(C(=O)c2ccc(-c4ccccc4)cc2)CC3)CC1` [PK-THPP], the “potency on TASK-1 relative to TASK-3” value in the experiment on TASK-1 is reported as “almost nine-times less potency; also recorded: almost nine-fold less potency”.

In general, IC50 refers to the point on the concentration scale where inhibition reaches its midpoint.
